Literature values, collected in patent US20070219127A1, “CYCLOSPORIN A COMPOSITIONS” (priority 2006, published 2007).

Row | SMILES | systemically administered elimination half-life
1 | FC1(F)C(F)(F)C(F)(F)C2(F)C(F)(C1(F)F)C(F)(F)C(F)(F)C1(F)C(F)(F)C(F)(F)C(F)(F)C(F)(F)C12F (centres unmarked) [PPP, perfluoroperhydrophenanthrene] | about 7 days
2 | FC1(F)C(F)(F)C(F)(F)C2(F)C(F)(F)C(F)(F)C(F)(F)C(F)(F)C2(F)C1(F)F (centres unmarked) [PFD, Perfluoro (decahydronaphthalene)] | about 7 days
